Test results from patent US20070009544A1, “Anti-allergic complex molecules” (priority 1999, published 2007).
In brackets after ≈: the same amount, converted by molar mass. Numbered stars: 1 amine (or outer) side, 2 acyl side, 3 side chain; on linkers, the order of the positions; unused ones are H or OH. Square brackets hold non-standard residues; d marks the D form. Ends that are not written are not given here. Peptide text beside a SMILES is read from it. Suc = O=C(CCC(=O)[*:2])[*:1]; Sar = CNCC(=O)O

Columns and labels:
[1] = test system: purified rat peritoneal mast cells; assay type: cell-based; conditions: for maximal inhibition of compound 48/80 induced histamine secretion: 600 μg/ml peptide, compound 48/80 concentration not given; for Inhibitor (extent of inhibition of histamine secretion from mast cells): Table 9
Protocol: 37° C. […] Each data point represents the average of duplicate measurements. The spontaneously released histamine was subtracted.
First, the effect of compound 48/80 on exocytosis from intact mast cells was determined. […] Histamine release was determined and is presented as the net secretion that is % of the total cellular histamine following subtraction of the spontaneously released histamine. Half-maximal release was obtained at 0.1 μg/ml while maximal release was obtained at 1-10 μg/ml. Accordingly, in order to analyze the potential of each peptide to block histamine secretion, histamine secretion was induced with 5 μg/ml compound 48/80, a concentration that induces a maximal histamine release, while the cells were incubated in the presence of increasing concentrations of each peptide.
In order to investigate the ability of these peptides to block allergen-induced exocytosis, the peptides were examined for their ability to block compound 48/80 induced histamine secretion from intact mast cells in vitro. Mast cells were incubated with different concentrations of each peptide, followed by induction of histamine secretion by compound 48/80.

[2] = test system: purified rat peritoneal mast cells; assay: Histamine secretion from intact mast cells incubated with peptide alone (secretagogue side effect); conditions: for Secretagogue (histamine secretion following incubation of mast cell with different concentrations of each peptide): no allergen; for histamine secretion from mast cells on incubation with increasing concentrations of peptide alone: no additional allergen
Protocol: Mast cells from the peritoneal cavity of C.R rats were isolated in Tyrode buffer (137 mM NaCl, 2.7 mM KC1, 1 mM MgCl2, 0.4 mM NaH2PO4, 20 mM Hepes, 1.0 mM CaCl2, 5.6 mM glucose, 1 mg/ml BSA, pH 7.2) and purified over a Ficoll gradient. A suspension of washed peritoneal cells was placed over a cushion of 30% Ficoll 400 (Pharmacia Biotech.) in buffered Saline containing 0.1% BSA; and centrifuged at 150O×g for 15 min. The purity of mast cells recovered from the bottom of the tube was >90%, as assessed by toluidine blue staining.
Purified mast cells (duplicated of 10^5 cells/0.5 ml) were incubated in Tyrode buffer with buffer or with desired concentrations of the indicated peptide for 2 h. at. 37° C. Histamine secretion was subsequently stimulated by the indicated concentration of compound 48/80 (Sigma) dissolved in Tyrode buffer. Incubation with compound 48/80 was carried out for 20 mm.in at 37° C. The reaction was terminated by placing the tubes on ice. The cells were sedimented by centrifugation at 150×g for 5 mm.in and the supernatants were collected. The amount of histamine release was determined as previously described (Aridor et al., 1990). Briefly, cell pellets were lysed using 0.1N NaOH and the volume of each sample was adjusted to 0.5 ml by H2O. Histamine content was assayed using the o-phtalaldehyde (OPT) fluorimetric method (Shore et al., 1959). Aliquots of 0.4 ml from the supernatants and cell lysates were incubated with 1.6 ml H20, 0.4 ml 1N NaOH and 0.1 ml of 10 mg/l ml OPT in methanol, for 4 min at room temperature. The reaction was terminated by the addition of 0.2 ml 3N HCl. Samples were centrifuged at 150×g for 5 min. and 0.2 ml samples were transferred to a 96 well plate. The histamine spectrofluorometric assay was run in microplates using a microplates reader (FL-600, Biotek instruments Winooski, Vt., USA). Samples were excited by light at 340 nm and read at 440 nm. Histamine release was calculated as the percentage of total histamine content (supernatant/pellet+supernatant) in each sample. Each data point represents the average of duplicate measurements. The spontaneously released histamine was subtracted.

[3] = test system: abdominal skin of C.R rats; assay: Rat skin test: intradermal injection of peptide, then intradermal compound 48/80 or vehicle, wheal area; assay type: in vivo; conditions: for Mean Wheal Area ± STD, Compound 48/80: 0.5 hour before allergic induction; for Mean Wheal Area ± STD, Vehicle: 0.5 hour before, vehicle instead of compound 48/80
Protocol: The hair of the abdominal area of C.R rats was carefully removed with an electric clipper and a depilatory cream. In each animal the abdominal area was divided to six equal zones that were marked by pen. Each zone was either subjected to peptide treatment or served as a control. In the first set of experiments, the peptide was topically applied as follows: 36 μl of peptide solution at the indicated concentration (dissolved in 72% DMSO in saline) was applied on desired abdominal area. In the second set of experiments, the peptide was injected intradermally as follows: 20 μl of peptide solution at different concentrations (dissolved in 10% DMSO in saline) was injected intradermally to an indicated abdominal area using a 27-gauge sterile needle.
Skin tests were performed 0.5, 1 or 2 hours following application of the peptide. Skin tests were performed by injecting intradermally 20 μl of the allergen (0.1 mg/ml compound 48/80 dissolved in saline) or saline alone, into the center of each marked area on the abdominal skin using a 27-gauge sterile needle. The allergic response was monitored by outlining with a marker the wheals which developed in response to allergen or saline treatment.
To quantitate the skin test results, the marker signs were transferred onto paper with scotch tape. The areas of the wheals were outlined and calculated by a computerized planimeter (Hewlett-Packard), as previously described (Sussman et al., 1982).
Tables 10-16 presents the mean areas of the wheals, which developed in response to intradermal injection of each of the tested peptides, followed by either compound 48/80 or DDW injection applied after 0.5 or 1 hour. Two doses were tested for each peptide-20 and 200 μg (injection of 20 μl from a stock solution of 1 mg/ml or 10 mg/m respectively).
Skin tests on rats using compound 48/80 as the allergen assessed the ability of the peptides of the present invention to block allergic cutaneous reactions. The abdominal skin of the rats was subjected to peptide (indicated concentrations are listed in Tables 17A-17B below) or vehicle treatment (intradermal injection); the allergic response was induced by intradermal injection of compound 48/80 at various times; and the allergic response was quantified by calculating the area of the resultant allergic wheals.

[4] = incubation with different concentrations of each peptide, then induction of the allergic reaction

## CC(C)C[C@H](NC(=O)CNC(=O)[C@H](CS)NC(=O)[C@H](CC(=O)O)NC(=O)[C@H](CCCCN)NC(=O)[C@H](CC(C)C)NC(=O)[C@H](CC(N)=O)NC(=O)[C@H](CCC(=O)O)NC(=O)[C@H](CCCCN)NC(=O)[C@@H]1CCCN1C(=O)[C@H](C)NC(=O)[C@H](CC(C)C)NC(=O)[C@H](CC(C)C)NC(=O)[C@H](C)NC(=O)[C@H](CC(C)C)NC(=O)[C@H](CC(C)C)NC(=O)[C@@H](NC(=O)[C@H](C)NC(=O)[C@@H]1CCCN1C(=O)[C@H](CC(C)C)NC(=O)[C@H](CC(C)C)NC(=O)[C@H](C)NC(=O)[C@@H](NC(=O)[C@H](C)NC(=O)[C@H](C)NC(=O)CCC(=O)O)C(C)C)C(C)C)C(=O)N[C@@H](Cc1ccccc1)C(=O)O [Peptide 5-Suc] (Suc-AAVALLPAVLLALLAPKENLKDCGLF-OH; C-terminus assumed)
[1]; Table 1, incubation with different concentrations of each peptide, then induction of the allergic reaction
  Inhibitor (degree of inhibition of histamine secretion from mast cells): − (− No inhibition)
[2]; Table 1, peptide alone
  Secretagogue (histamine secretion following incubation of mast cell with different concentrations of each peptide): +
[2]
  histamine secretion from mast cells on incubation with increasing concentrations of peptide alone: induced histamine secretion from mast cells in a concentration dependent manner

## CC(C)C[C@H](NC(=O)CNC(=O)[C@H](CS)NC(=O)[C@H](CCC(=O)O)NC(=O)[C@H](CCCCN)NC(=O)[C@H](CC(C)C)NC(=O)[C@H](CC(N)=O)NC(=O)[C@H](CC(N)=O)NC(=O)[C@H](CCCCN)NC(=O)CN(C)C(=O)[C@H](C)NC(=O)[C@H](CC(C)C)NC(=O)[C@H](CC(C)C)NC(=O)[C@H](C)NC(=O)[C@H](CC(C)C)NC(=O)[C@H](CC(C)C)NC(=O)[C@@H](NC(=O)[C@H](C)NC(=O)[C@@H]1CCCN1C(=O)[C@H](CC(C)C)NC(=O)[C@H](CC(C)C)NC(=O)[C@H](C)NC(=O)[C@@H](NC(=O)[C@H](C)NC(=O)[C@H](C)NC(=O)CCC(=O)O)C(C)C)C(C)C)C(=O)N[C@@H](Cc1ccc(O)cc1)C(=O)O [WALL008] (Suc-AAVALLPAVLLALLA[Sar]KNNLKECGLY-OH; C-terminus assumed)
[3]; intradermal peptide
  block of compound 48/80 induced allergic reaction in vivo, rat skin: effectively block the allergic response in vivo
[3]; intradermal peptide 1 mg/ml
  Mean Wheal Area ± STD, Compound 48/80: 104.1 ± 18.5 (n = 4) mm^2
  Mean Wheal Area ± STD, Vehicle: 79.9 ± 22.3 (n = 4) mm^2
[3]; intradermal peptide 10 mg/ml
  Mean Wheal Area ± STD, Compound 48/80: 73.7 ± 12.2 (n = 4) mm^2
  Mean Wheal Area ± STD, Vehicle: 72.8 ± 13.6 (n = 4) mm^2
[3]; intradermal peptide 0.5 hour before allergic induction
  reduction of compound 48/80 induced allergic reaction: significant inhibition
[1]
  IC50, compound 48/80 induced histamine secretion: 220 µg/mL (≈ 79.9 µM)
  maximal inhibition of compound 48/80 induced histamine secretion: 98.7%
[1]; [4]
  Inhibitor (extent of inhibition of histamine secretion from mast cells): +++ (+++ Potent inhibitor (≧80% inhibition))
[2]; Table 9, peptide alone
  Secretagogue (histamine secretion following incubation of mast cell with different concentrations of each peptide): −
[2]
  histamine secretion from mast cells on incubation with increasing concentrations of peptide alone: did not result in histamine secretion
[2]; peptide alone, increasing concentrations
  basal level of histamine secretion compared to control cells: inhibition of the basal level of histamine secretion

## CC(C)C[C@H](NC(=O)CNC(=O)[C@H](CS)NC(=O)[C@H](CCC(=O)O)NC(=O)[C@H](CCCCN)NC(=O)[C@H](CC(C)C)NC(=O)[C@H](CC(N)=O)NC(=O)[C@H](CO)NC(=O)[C@H](CCCCN)NC(=O)[C@@H]1CCCN1C(=O)[C@H](C)NC(=O)[C@H](CC(C)C)NC(=O)[C@H](CC(C)C)NC(=O)[C@H](C)NC(=O)[C@H](CC(C)C)NC(=O)[C@H](CC(C)C)NC(=O)[C@@H](NC(=O)[C@H](C)NC(=O)[C@@H]1CCCN1C(=O)[C@H](CC(C)C)NC(=O)[C@H](CC(C)C)NC(=O)[C@H](C)NC(=O)[C@@H](NC(=O)[C@H](C)NC(=O)[C@H](C)NC(=O)CCC(=O)O)C(C)C)C(C)C)C(=O)N[C@@H](Cc1ccc(O)cc1)C(=O)O [WALL011] (Suc-AAVALLPAVLLALLAPKSNLKECGLY-OH; C-terminus assumed)
[1]
  IC50, compound 48/80 induced histamine secretion: 160 µg/mL (≈ 58.1 µM)
  maximal inhibition of compound 48/80 induced histamine secretion: 87%
[1]; [4]
  Inhibitor (extent of inhibition of histamine secretion from mast cells): +++ (+++ Potent inhibitor (≧80% inhibition))
[2]; Table 9, peptide alone
  Secretagogue (histamine secretion following incubation of mast cell with different concentrations of each peptide): −
[2]
  histamine secretion from mast cells on incubation with increasing concentrations of peptide alone: did not result in histamine secretion
[2]; peptide alone at 400-600 μg/ml
  basal level of histamine secretion compared to control cells: minor inhibition of the basal level of histamine secretion

## AAVALLPAVLLALLAAKNNLKECGLY [WALL004]
[2]; especially at a peptide concentration exceeding 200 μg/ml
  histamine secretion from mast cells, peptide alone: moderate histamine secretion

## AAVALLPAVLLALLAPKENLKDCGLF [Peptide 5]
[2]; Table 1, peptide alone
  Secretagogue (histamine secretion following incubation of mast cell with different concentrations of each peptide): −

## AAVALLPAVLLALLAPKNNLKDCGLF [Peptide 5m]
[2]; Table 1, peptide alone
  Secretagogue (histamine secretion following incubation of mast cell with different concentrations of each peptide): +
[2]
  histamine secretion from mast cells on incubation with increasing concentrations of peptide alone: induced histamine secretion from mast cells in a concentration dependent manner

## AAVALLPAVLLALLAPKNNLKESGLY [Peptide 25]
[2]; Table 1, peptide alone
  Secretagogue (histamine secretion following incubation of mast cell with different concentrations of each peptide): +
[2]
  histamine secretion from mast cells on incubation with increasing concentrations of peptide alone: induced histamine secretion from mast cells in a concentration dependent manner

## AAVALLPAVLLALLAPKQNLKECGLY [WALL006]
[1]
  IC50, compound 48/80 induced histamine secretion: 560 µg/mL
[2]; Table 9, peptide alone
  Secretagogue (histamine secretion following incubation of mast cell with different concentrations of each peptide): −
[2]
  histamine secretion from mast cells on incubation with increasing concentrations of peptide alone: did not result in histamine secretion

## AAVALLPAVLLALLAPLKDCGLF [Peptide 21]
[2]; at higher doses of 400 and 600 μg/ml
  histamine secretion from mast cells, peptide alone: induced some histamine secretion

## AAVALLPAVLLALLAPLKECGLY [Peptide 20]
[2]; Table 1, peptide alone
  Secretagogue (histamine secretion following incubation of mast cell with different concentrations of each peptide): −
[2]
  histamine secretion from mast cells on incubation with increasing concentrations of peptide alone: did not induce histamine secretion

## AAVALLPAVLLALLAPYLGCEKLNNK [WALL023]
[2]; 600 μg/ml peptide
  histamine secretion from mast cells, peptide alone: did not result in histamine secretion
[2]; Table 9, peptide alone
  Secretagogue (histamine secretion following incubation of mast cell with different concentrations of each peptide): −

## KAAVALLPAVLLALLAPKNNLKDCGLF [Peptide 12]
[2]; Table 1, peptide alone
  Secretagogue (histamine secretion following incubation of mast cell with different concentrations of each peptide): +
[2]
  histamine secretion from mast cells on incubation with increasing concentrations of peptide alone: induced histamine secretion from mast cells in a concentration dependent manner

## KAAVALLPAVLLALLAPKNNLKECGLY [Peptide 13]
[2]; Table 1, peptide alone
  Secretagogue (histamine secretion following incubation of mast cell with different concentrations of each peptide): +
[2]
  histamine secretion from mast cells on incubation with increasing concentrations of peptide alone: induced histamine secretion from mast cells in a concentration dependent manner

## RQPKIWFPNRRKPWKKKENLKDCGLF [Peptide 6]
[2]
  histamine secretion from mast cells on incubation with increasing concentrations of peptide alone: induced histamine secretion from mast cells in a concentration dependent manner

## RQPKIWFPNRRKPWKKKNNLKECGLY [Peptide 3]
[2]
  histamine secretion from mast cells on incubation with increasing concentrations of peptide alone: induced histamine secretion from mast cells in a concentration dependent manner

## VTVLALGALAGVGVGKENLKDCGLF [Peptide 4]
[2]; peptide alone, concentration range of up to 400 p.g/ml (FIG. 1A)
  stimulatory effect on histamine secretion: hardly any stimulatory effect
